From patent US20210238197A1, “NOVEL OXOQUINOLIZINE COMPOUNDS FOR THE TREATMENT AND PROPHYLAXIS OF BACTERIAL INFECTION” (Hoffmann-La Roche Inc., priority 2018, published 2021)
pIC50: −log10 of the molar value. ≈ marks a conversion by molar mass, not a printed value. Read-outs that look alike come from different tables or passages of the source.

Columns and labels:
[1] = Single dose PK study (SDPK) in female CD-1 mouse; type: in vivo; details: IV bolus, 1.0 mg/kg solution; for clearance: plasma, read-out: CL total
Description: The single dose PK in female CD-1 mouse was performed to assess compound's pharmacokinetic properties. One group of animals were dosed via bolus intravenous (IV) of the respective compound. Blood samples (approximately 30 μL) were collected via saphenous vein at 5 mins, 15 min, 30 min, 1 hr, 2 hr, 4 hr and 7 hr. For last time point (24 hr), samples were collected via cardiac puncture while the mouse was under anesthesia. Blood samples were placed into tubes containing EDTA-K2 anticoagulant (2 μL of 0.5M per tube) and centrifuged at 3000 rpm for 10 minutes at 4° C. within half an hour to separate plasma from the samples. Following centrifugation, plasma samples were stored in polypropylene tubes, quick frozen over dry ice and kept at −70±10° C. until LC/MS/MS analysis. The pharmacokinetic parameters were calculated using non-compartmental module of WinNonlin® Professional 6.4.

[2] = tested on: K. pneumoniae (ATCC10031); assay: 50% growth inhibitory concentration (IC50) determination assay, K. pneumoniae; type: cell-based; details: Iso-Sensitest broth, growth by OD 600 nm over 16 h, <0.098 = detection limit
Outline: (§1)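 Compounds two-fold diluted from 50 to 0.097 μM (final) in Iso-Sensitest broth, inoculum ~5×10^5 CFU/mL. Incubation at 35±2 °C with OD600 read every 20 min over 16 h to track growth.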

[3] = Cytotoxicity assay (HepG2, CellTiter-Blue); type: cell-based; details: human; HepG2 cells, 3 days treatment; >100 = detection limit
Outline: (§2)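 HepG2 cells exposed to compounds for 3 days. Viability read on day 3 by CellTiter-Blue fluorescence after 3 h at 37° C. CC50 obtained from a four-parameter logistic fit.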

[4] = tested on: S. aureus (ATCC29213); assay: 50% growth inhibitory concentration (IC50) determination assay, S. aureus; type: cell-based; details: Iso-Sensitest broth, growth by OD 600 nm over 16 h, <0.098 = detection limit
Outline: as §1

[5] = tested on: A. baumannii (ATCC17978); assay: 50% growth inhibitory concentration (IC50) determination assay, A. baumannii; type: cell-based; details: Iso-Sensitest broth, growth by OD 600 nm over 16 h, <0.098 = detection limit
Outline: as §1

[6] = Lyophilisation solubility assay (LYSA); type: physicochemical; details: aqueous buffer, thermodynamic from solid; 0.05 M phosphate buffer, pH 6.5; <1.0 = detection limit
Description: The solubility of compounds of present invention was assessed by LYSA assay. Samples were prepared in duplicate from 10 mM DMSO stock solutions (20 μL) diluted in 30 μL pure DMSO. After evaporation of DMSO with a centrifugal vacuum evaporator, the residue was dissolved in 0.05 M phosphate buffer (150 μL, pH 6.5), which was stirred for one hour and shook for two hours. After one night, the solution was filtered using a microtiter filter plate. Then the filtrate and its 1/10 dilution were analyzed by HPLC-UV. In addition a four-point calibration curve was prepared from the 10 mM stock solutions and used for the solubility determination of the compounds.

[7] = tested on: multiple species and strains; assay: microbe, parasite or virus in culture; set-up: MIC S9 / MIC S7 / MIC S11 / MIC S8 / MIC S10: unit not given beside the values
Outline: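 Broth microdilution per CLSI M07-A10 in CAMHB, CAMHB+3% lysed horse blood or HTM. Inoculum was set to OD600 ~0.1, then diluted 1:280 (Gram-positive) or 1:400 (Gram-negative), and plates were incubated 18-24 h at 35±2° C in ambient air. MIC (μg/mL) is the lowest concentration giving no visible growth.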

[8] = tested on: HepG2 cells; assay: Cytotoxicity assay (HepG2, CellTiter-Blue); type: cell-based
Outline: as §2

[9] = Klebsiella pneumoniae, ATCC10031
[10] = Staphylococcus aureus, ATCC29213
[11] = Acinetobacter baumannii, ATCC17978
[12] = Acinetobacter baumannii, ATCC19606, read-out: MIC S1, A. baumannii ATCC 19606
[13] = Acinetobacter baumannii, ATCC51432, read-out: MIC S2, A. baumannii ATCC 51432
[14] = Acinetobacter baumannii, ATCCBAA747, read-out: MIC S3, A. baumannii ATCC BAA-747
[15] = Escherichia coli, ATCC25922, read-out: MIC S11, E. coli ATCC 25922
[16] = Escherichia coli, ATCCBAA2340, read-out: MIC S10, E. coli ATCC BAA-2340
[17] = Klebsiella pneumoniae, ATCC10031, read-out: MIC S4, K. pneumoniae ATCC 10031
[18] = Klebsiella pneumoniae, ATCC700603, read-out: MIC S5, K. pneumoniae ATCC 700603
[19] = Klebsiella pneumoniae, ATCCBAA2146, read-out: MIC S6, K. pneumoniae ATCC BAA-2146
[20] = Pseudomonas aeruginosa, ATCC27853, read-out: MIC S7, P. aeruginosa ATCC 27853
[21] = Pseudomonas aeruginosa, ATCCBAA2113, read-out: MIC S8, P. aeruginosa ATCC BAA-2113

Compound | AUC total [1] [ng·h/mL] | clearance [1] [mL/min/kg] | pIC50 [2, 9] | CC50 at 3 days [3] [µM] | pIC50 [4, 10] | pIC50 [5, 11] | solubility thermodynamic [6] [µg/mL] | MIC [7, 12] [µg/mL] | MIC [7, 13] [µg/mL] | MIC [7, 14] [µg/mL] | MIC S9 ([7]; E. coli ATCC 35218) | MIC [7, 15] [µg/mL] | MIC [7, 16] [µg/mL] | MIC [7, 17] [µg/mL] | MIC [7, 18] [µg/mL] | MIC [7, 19] [µg/mL] | MIC [7, 20] [µg/mL] | MIC [7, 21] [µg/mL] | further results
CNc1cc(F)c(Cl)c2c1[nH]c1ncc(-c3ccc4ccc(C(=O)O)c(=O)n4c3)c(N3CC[C@]4(C[C@@H]4N)C3)c12 [Example 5.01D, 7-(4-((1S,3S)-1-amino-5-azaspiro[2.4]heptan-5-yl)-5-chloro-6-fluoro-8-(methylamino)-9H-pyrido[2,3-b]indol-3-yl)-4-oxo-4H-quinolizine-3-carboxylic acid] | 180 | 93 | > 7.01 | > 100 | > 7.01 | > 7.01 | – | – | – | – | – | – | – | – | – | – | – | – | –
CNc1cc(F)c(F)c2c1[nH]c1ncc(-c3ccc4ccc(C(=O)O)c(=O)n4c3)c(N3CCC4CN(C)C[C@@H]43)c12 (stereo in doubt) [Example 1.03, 7-[5,6-difluoro-4-(cis-5-methyl-2,3,3a,4,6,6a-hexahydropyrrolo[2,3-c]pyrrol-1-yl)-8-(methylamino)-9H-pyrido[2,3-b]indol-3-yl]-4-oxo-quinolizine-3-carboxylic acid] | 374.7 | 39.1 | > 7.01 | 21.9 | > 7.01 | > 7.01 | 134 (≈ 246 µM) | 0.26 (≈ 0.477 µM) | 0.26 (≈ 0.477 µM) | 0.13 (≈ 0.239 µM) | 0.510 | 0.193 (≈ 0.354 µM) | 2.06 (≈ 3.78 µM) | 0.03 (≈ 0.0551 µM) | 4.12 (≈ 7.57 µM) | 2.06 (≈ 3.78 µM) | 1.03 (≈ 1.89 µM) | 2.06 (≈ 3.78 µM) | –
CNc1cc(F)cc2c1[nH]c1nc(Oc3cnc(C)nc3)nc(N3C[C@H]4C[C@@H]3C[C@H]4N)c12 [GP-6, reference compound] | 126.2 | 132 | > 7.01 | 5.6 | > 7.01 | > 7.01 | < 1 | 0.339 (≈ 0.78 µM) | 0.339 (≈ 0.78 µM) | 0.169 (≈ 0.389 µM) | 0.169 | 0.127 (≈ 0.292 µM) | 1.36 (≈ 3.13 µM) | < 0.021 | 1.36 (≈ 3.13 µM) | 2.71 (≈ 6.25 µM) | 0.678 (≈ 1.56 µM) | 1.36 (≈ 3.13 µM) | –
CNc1cc(F)c(F)c2c1[nH]c1ncc(-c3ccc4ccc(C(=O)O)c(=O)n4c3)c(N3CC[C@H]4CN(C)C[C@H]43)c12 [Example 1.04, 7-[4-[(3aS,6aS)-5-methyl-2,3,3a,4,6,6a-hexahydropyrrolo[2,3-c]pyrrol-1-yl]-5,6-difluoro-8-(methylamino)-9H-pyrido[2,3-b]indol-3-yl]-4-oxo-quinolizine-3-carboxylic acid] | 256 | 64.1 | > 7.01 | 15 | > 7.01 | > 7.01 | 460 (≈ 845 µM) | 0.128 (≈ 0.235 µM) | 0.128 (≈ 0.235 µM) | 0.128 (≈ 0.235 µM) | 0.128 | 0.048 (≈ 0.0881 µM) | 0.258 (≈ 0.474 µM) | 0.032 (≈ 0.0588 µM) | 1.03 (≈ 1.89 µM) | 1.03 (≈ 1.89 µM) | 0.514 (≈ 0.944 µM) | 2.06 (≈ 3.78 µM) | –
CNc1cc(F)c(C#N)c2c1[nH]c1ncc(-c3ccc4ccc(C(=O)O)c(=O)n4c3)c(N3CC[C@H]4CN(C)C[C@H]43)c12 [Example 1.14, 7-[4-[(3aS,6aS)-5-methyl-2,3,3a,4,6,6a-hexahydropyrrolo[2,3-c]pyrrol-1-yl]-5-cyano-6-fluoro-8-(methylamino)-9H-pyrido[2,3-b]indol-3-yl]-4-oxo-quinolizine-3-carboxylic acid] | 214 | 78.7 | > 7.01 | 15.3 | > 7.01 | > 7.01 | – | 0.108 (≈ 0.196 µM) | 0.215 (≈ 0.39 µM) | 0.215 (≈ 0.39 µM) | 0.108 | 0.04 (≈ 0.0725 µM) | 0.215 (≈ 0.39 µM) | 0.027 (≈ 0.049 µM) | 1.72 (≈ 3.13 µM) | 0.86 (≈ 1.56 µM) | 0.86 (≈ 1.56 µM) | 1.72 (≈ 3.13 µM) | –
7-(5-cyano-4-(cis-(4R)-4 (dimethylamino)-3,3a,4,5,6,6a-hexahydro-1H-cyclopenta[c]pyrrol-2-yl)-6-fluoro-8-(methylamino)-9H-pyrido[2,3-b]indol-3-yl)-4-oxo-4H-quinolizine-3-carboxylic acid [Example 1.12] | – | – | – | – | – | – | – | – | – | – | – | – | – | – | – | – | – | – | pIC50 [2]: > 7.01; MIC S9 [7]: 0.541; MIC S1 ([7]; A. baumannii ATCC 19606): 1.082; MIC S2 ([7]; A. baumannii ATCC 51432): 0.541; MIC S3 ([7]; A. baumannii ATCC BAA-747): 0.541; MIC S11 ([7]; E. coli ATCC 25922): 0.203; MIC S10 ([7]; E. coli ATCC BAA-2340): 0.541; MIC S4 ([7]; K. pneumoniae ATCC 10031): 0.068; MIC S5 ([7]; K. pneumoniae ATCC 700603): 2.168; MIC S6 ([7]; K. pneumoniae ATCC BAA-2146): 4.335; MIC S7 ([7]; P. aeruginosa ATCC 27853): 1.082; MIC S8 ([7]; P. aeruginosa ATCC BAA-2113): 2.168; CC50 [8]: > 100 µM; pIC50 [4]: > 7.01; pIC50 [5]: > 7.01
